Key:
[1] = system: Nephrotoxin-Type Nephritis; experiment: Therapeutic effect on nephrotoxin-type nephritis (proteinuria); type: in vivo, male Wistar rats; settings: same test as Table 3; result in words
From the text: Rat nephrotoxin ("NT" for brevity) was obtained as described below. Rat kidney cortex was homogenized with an equal quantity of physiological saline. The homogenized mixture was mixed with Freund's complete adjuvant (a product of Difco Company) in a volume ratio of 1:1. Two milliliters of the resulting mixture was intramuscularly injected into a rabbit (body weight 3,100 g) to immunize the rabbit. A month and a half later, blood was taken from the heart of the rabbit and serum was obtained. The resulting serum was inactivated at 56° C. for 30 minutes, then salted out with a 40% saturated aqueous solution of ammonium sulfate, and fractionated. The γ-globulin (IgG) fraction was collected to obtain NT.
The evaluation was carried out using male Wistar rats with a body weight of 150 to 160 g with three replications for each test compound. The test compound was intraperitoneally administered once every 24 hours for seven days. One hour after the administration of the test compound on the third day, the NT was applied. The NT was intravenously injected in an amount of 1 ml at a tail vein of each rat. Chlorophyllin (CP) was used as a comparison compound, and physiological saline solution was used as a control.
The proteinuria level (total amount excreted into the urine over a 24 hour period) was measured using turbidometry employing bovine serum albumin as a control by means of sulfosalicylic acid.

[2] = Acute toxicity on intravenous administration to mice; settings: mouse, in vivo
Heymann-type Nephritis = experiment: Therapeutic effects on Heymann-type nephritis (proteinuria); type: in vivo, male Wistar rats; settings: test of Table 4; result in words
Procedure: Male Wistar rats with a body weight of 180 to 200 g were used in the test. Rat kidney cortex was extracted, and homogenized with an equal quantity by volume of a physiological saline solution. The homogenate was centrifuged at 1500 G for 1 hour. The supernatant liquid was purified in accordance with the method of T. S. […] The resulting mixture was injected intraperitoneally into isologous rats in an amount of 0.5 ml per rat. […] (This period was about 6 to 8 weeks.) […] CP was used as a comparison compound, and physiological saline solution was used as a control. Three replications were conducted for each test compound.

[3] = system: complement serum (guinea pig complement); experiment: Anti-complement activity: 50% inhibition of hemolysis of sensitized erythrocytes; type: cell-based; settings: Cavia porcellus, Erythrocyte, 1 h, 37° C., 60 minutes, guinea pig complement diluted 150 times, OD413, read-out: Anti-Complement Activity Value (50% hemolysis inhibitory activity value)
Procedure: The anti-complement activity was measured and confirmed by the testing method described in Meneki Kagaku (Immuno-Chemistry), Yuichi Yamamura et al., Ed. pages 830-834, Asakura Shoten, Tokyo, Japan (1973). Specifically,a test tube was charged with 0.5 ml of an aqueous dispersion of each of the test compounds, 0.5 ml of sensitized erythrocytes (EA) containing 1×10^8 cells/ml, 1 ml of a 5-fold diluted solution of a Veronal buffer solution containing gelatin, Ca^++ and Mg^++ (GVB^++), and 0.5 ml of complement serum (guinea pig complement) diluted to 150 times with the GVB^++. The mixture was maintained hot at 37° C. for 60 minutes. Then, 5 ml of an ice-cold physiological saline solution was added thereto, and the mixture was centrifuged. […] The 50% hemolysis inhibitory activity value (γ/ml) measured by the above method is shown in Table 2 below for each test compound.

## CC1CCC2C(C)(C)C(O)C(O)CC2(C)C12Cc1c(O)cc(C=CC(=O)O)c(C=CC(=O)O)c1O2 (stereo not shown) [(7), 6,7-Dihydroxy-2,5,5,8a-tetramethyl-1,2,3,4,4a,5,6,7,8,8a-decahydronaphthalene-1-spiro-2'-[6',7'-di-(2-carboxyvinyl)-4'-hydroxy-2',3'-dihydrobenzofuran]]
[1]
  inhibition of the primary reaction of nephrotoxin-type nephritis: found to inhibit the primary reaction
[2]
  LD50: 150 mg/kg
Heymann-type Nephritis
  activity of curing Heymann-type nephritis: a substantial activity of curing Heymann-type nephritis
[3]
  IC50: 80 µg/mL

Reference: patent publication US4229466A, “Sesquiterpene derivatives having anti-complementary activity” (Otsuka Pharmaceutical Co., Ltd., priority 1977, dated 1980)
